# Laboratory results taken from patent publication US11549123B2, “Plant EPSP synthases and methods of use” (PIONEER HI-BRED INTERNATIONAL, INC., priority 2015, dated 2023).
# Key:
# Assay type in all cases: biochemical
# [1] = biological target: Sorghum halepense EPSPS with 868-H6 mutations, SEQ ID NO:12 (Sorghum halepense, UniProt H6T5X2, A1R/A3W/A415G/D401G/E301S/E390G/G101A/I207L/K83R/L97C/T278A/T360S/T440Q/V437R/V71Q); test: EPSPS substrate saturation kinetics, sorghum H6
# Procedure: EPSPS activity was determined by quantifying the phosphate generated from the EPSPS reaction. Release of inorganic phosphate was coupled to reaction with 2-amino-6-mercapto-7-methylpurine ribonucleoside, catalyzed by purine-nucleoside phosphorylase (M R Webb, Proc. Natl. Acad. Sci. 89:4884-4887, 1992). The absorbance change that occurs was monitored at 360 nm, where the extinction is 11,200 M^−1 cm^−1, with a Spectramax plate reader (Molecular Devices). To determine kinetic parameters, the varied substrate was present at seven concentrations (the eighth being the blank, containing no substrate) ranging from 4 to 400 uM and the unvaried substrate present at saturation. […] Reactions were monitored with a Spectramax plate reader. […] KI was then calculated from the following form of the Michaelis-Menten equation for competitive inhibition: KI=KM[I]/(KM app−KM) KM approximates the dissociation constant of the enzyme-substrate complex while kcat is the rate of conversion of substrate to product when the substrate concentration is saturating. kcat/KM is a widely accepted parameter for catalytic efficiency when substrate concentration is low (˜KM). […] The parameter kcat/KM×KI is used to quantify both catalytic efficiency and insensitivity and thus the overall fitness of the enzyme. […]
# [2] = biological target: T1, Zea mays EPSPS variant Zm-H6 (868-H6) with D196V (H6-D196V) (Zea mays, UniProt O24566, A1R/A3W/A415G/A71Q/D195V/D401G/E301S/E390G/G101A/I207L/K83R/L97C/T278A/T360S/T440Q/V437R); test: Rapid two-rate method for (kcat/KM)*KI, H6-D196V; conditions: [E] 0.07 uM, [Gly] 1000 uM
# T1 construct: shuffled variant 868-H6 plus D196V; E. coli BL21(DE3), Ni-NTA purified
# T1 sequence (O24566 with tags, fused parts or gaps A1R/A3W/A71Q/K83R/L97C/G101A/D195V/I207L/T278A/E301S/T360S/E390G/D401G/A415G/V437R/T440Q): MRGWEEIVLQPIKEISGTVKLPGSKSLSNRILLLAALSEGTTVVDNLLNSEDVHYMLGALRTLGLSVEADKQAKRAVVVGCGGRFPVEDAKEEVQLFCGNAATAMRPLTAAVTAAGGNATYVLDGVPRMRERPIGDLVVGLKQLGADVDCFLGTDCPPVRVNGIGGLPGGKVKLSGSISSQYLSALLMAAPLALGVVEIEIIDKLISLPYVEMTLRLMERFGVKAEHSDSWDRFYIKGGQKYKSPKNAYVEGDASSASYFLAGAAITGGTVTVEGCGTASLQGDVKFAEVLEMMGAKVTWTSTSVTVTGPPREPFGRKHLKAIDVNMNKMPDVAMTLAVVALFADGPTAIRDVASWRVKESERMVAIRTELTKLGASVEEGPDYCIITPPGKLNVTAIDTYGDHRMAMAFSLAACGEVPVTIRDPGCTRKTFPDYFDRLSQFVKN
# Text: (§1) There are several practical considerations for accurately estimating (kcat/KM)*KI with the rapid method. […] 2) The inhibitor concentration must be adjusted so as to obtain a degree of inhibition that minimally amplifies the error in the term v0-vi in Equation 3. If inhibition is too little, v0-vi will be small, and the error in the multiplier vi×v0/(v0-vi) will be large. […] 3) Substrate concentration should be set at the approximate KM of the parental variant(s), subject to the sensitivity of the assay. High substrate concentration obscures sensitivity to the inhibitor and reduces stringency for capturing improvements in KM. Depending on the necessity for speed, there exists opportunity for customizing enzyme and inhibitor concentrations. […] The rapid method was repeated for those and obtained data that correlated better with data obtained by substrate saturation analysis. For screening purposes however, that correlation step is not necessary. Conditions can be set so that variants with a pre-determined minimal fitness level are accurately quantified.
# (§2) In Table 15, parameters above the heavy line for the rapid method were obtained under standard conditions. For variants shown below the heavy line, the rapid analysis was repeated with enzyme or glyphosate concentrations adjusted as needed to generate sufficient signal within the limits for linear initial rates.
# [3] = biological target: Zea mays EPSPS variant 278V (Zea mays, UniProt O24566, T277V); test: EPSPS reaction rate with or without 10 uM glyphosate, 278V; conditions: pH 7; read-out: Reaction rate with 10 μM glyph, % no glyph; further: 50 µM PEP and S3P
# [4] = biological target: T2, Zea mays EPSPS variant Zm-T103I (Zea mays, UniProt O24566, T102I); test: Rapid two-rate method for (kcat/KM)*KI, Zm-T103I
# T2 construct: native maize plus T103I; E. coli BL21(DE3), Ni-NTA purified
# T2 sequence (O24566 with tags, fused parts or gaps T102I): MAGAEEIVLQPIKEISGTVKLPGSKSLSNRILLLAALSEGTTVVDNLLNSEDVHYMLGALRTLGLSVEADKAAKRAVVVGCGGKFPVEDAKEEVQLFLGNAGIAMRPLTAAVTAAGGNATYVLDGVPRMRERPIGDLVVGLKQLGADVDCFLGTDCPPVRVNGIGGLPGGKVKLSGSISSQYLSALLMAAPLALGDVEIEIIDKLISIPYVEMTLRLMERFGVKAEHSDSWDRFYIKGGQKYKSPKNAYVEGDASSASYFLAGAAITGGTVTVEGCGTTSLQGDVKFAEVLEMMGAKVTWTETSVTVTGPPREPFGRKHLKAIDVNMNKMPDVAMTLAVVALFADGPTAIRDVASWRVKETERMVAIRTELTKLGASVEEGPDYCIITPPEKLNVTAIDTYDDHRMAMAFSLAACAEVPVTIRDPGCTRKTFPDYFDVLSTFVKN
# Text: as §1, §2
# Sorghum halepense EPSPS with 868-H6 mutations, SEQ ID NO:12, sequence (H6T5X2 entry or part of it with the stated changes): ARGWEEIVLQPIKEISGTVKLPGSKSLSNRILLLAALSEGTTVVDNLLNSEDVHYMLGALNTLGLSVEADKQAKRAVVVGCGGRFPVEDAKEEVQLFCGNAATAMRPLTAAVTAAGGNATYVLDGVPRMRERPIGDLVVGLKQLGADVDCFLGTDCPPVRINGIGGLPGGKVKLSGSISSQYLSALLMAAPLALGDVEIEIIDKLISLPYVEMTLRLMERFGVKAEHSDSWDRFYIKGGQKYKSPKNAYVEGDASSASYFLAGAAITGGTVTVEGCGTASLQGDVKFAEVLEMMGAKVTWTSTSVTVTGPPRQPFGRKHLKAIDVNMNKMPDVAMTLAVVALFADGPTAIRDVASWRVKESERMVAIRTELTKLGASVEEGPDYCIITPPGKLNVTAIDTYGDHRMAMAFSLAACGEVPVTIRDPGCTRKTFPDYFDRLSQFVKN
# Zea mays EPSPS variant 278V, sequence (O24566 entry or part of it T277V): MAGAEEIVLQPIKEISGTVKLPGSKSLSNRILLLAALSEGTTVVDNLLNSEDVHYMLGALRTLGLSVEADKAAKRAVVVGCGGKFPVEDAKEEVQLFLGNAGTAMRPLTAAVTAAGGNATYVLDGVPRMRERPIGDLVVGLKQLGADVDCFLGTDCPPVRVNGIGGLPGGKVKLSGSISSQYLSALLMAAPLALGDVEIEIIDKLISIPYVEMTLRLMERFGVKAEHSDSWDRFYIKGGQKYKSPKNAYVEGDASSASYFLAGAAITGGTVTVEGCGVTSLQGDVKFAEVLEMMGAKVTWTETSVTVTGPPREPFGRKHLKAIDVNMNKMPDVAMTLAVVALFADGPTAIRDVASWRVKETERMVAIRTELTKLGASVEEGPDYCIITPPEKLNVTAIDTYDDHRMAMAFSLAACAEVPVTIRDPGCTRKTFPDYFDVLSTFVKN
smiles,measurement,setting,value
"O=C(O)CNCP(=O)(O)O [glyphosate, N-phosphonomethylglycine]",Ki,[1],783 µM
same,(kcat/KM)*KI,"[1]; PEP as substrate, glyphosate as inhibitor",8080
same,(kcat/KM)*KI,[2],1704
same,activity at 10 µM,[3],3.25%
same,(kcat/KM)*KI,"[4]; rapid method repeated, [E] 0.103 uM, [Gly] 100 uM",116
same,(kcat/KM)*KI,"[4]; rapid method, [E] 0.07 uM, [Gly] 1000 uM",133
